For one experiment, the target named is T1, Full-length BTKC481S (Homo sapiens, UniProt Q06187, C481S).
T1 construct: Full-length BTKC481S was diluted in assay buffer
Briefly: BTKC481S Kinase Activity Assay. Type of experiment: biochemical. The settings on record: AlphaScreen, 60 μM ATP; test concentration not given. The method, then: BTKC481S Kinase Activity Assay
Test inhibitors and controls (Staurosporine) were prepared in 10% DMSO at 10-fold the desired final concentration, and added to each well of a reaction plate (Corning 96-well half-area solid white nonbinding surface plate) in a volume of 2.5 μl. Full-length BTKC481S was diluted in assay buffer (50 mM Tris, pH 8.0, 0.02 mg/ml BSA, 10 mM MgCl2, 1 mM EGTA, 10% glycerol, 1 mM DTT, 1 mM β-glycerophosphate, and 1 mM NaF) and added to each well in a volume of 17.5 μl for a final concentration in the 25 μl reaction of 10 nM. After a 30 minute pre-incubation at room temperature, the kinase reaction was initiated by the addition of 5 μl of an activation mixture diluted in assay buffer containing biotinylated PLCγ2 peptide, and ATP for final concentrations of 125 nM biotinylated PLCγ2, and 60 μM ATP. The plates were incubated for 60 minutes at room temperature. The reactions were stopped in the dark by the addition of 10 μl stop/detection mixture prepared in assay buffer containing EDTA, Staurosporine and AlphaScreen™ Streptavidin Donor and anti-pTYR100 Acceptor beads. The final concentrations were 15 mM EDTA, 1 μM Staurosporine and 500 ng/well of both AlphaScreen™ (Amplified Luminescent Proximity Homogeneous Assay) technology donor and acceptor beads. Assay plates were incubated for 60 minutes at room temperature in the dark, and the plates were read on a Perkin Elmer Envision Multilabel plate reader (excitation wavelength: […], emission wavelength: 570 nm).
(In Alpha technology, singlet oxygen from a donor bead excites a nearby acceptor bead.)

The subject of a further experiment is Rec-1. Briefly: Anti Proliferation Assay (MTS), Rec-1. The experiment is classed as cell-based. The settings on record: Homo sapiens, Rec1, Rec-1 cells, 72 hours treatment. The method, then:
(§1) Cell survival was determined by the MTS assay. Briefly, cells were plated in a 96-well plate at 2,000-10,000 cells per well, cultured for 24 hours in complete growth medium, and then treated with various drugs and drug combinations for 72 hours. MTS/PMS was added and incubated for 4 hour, followed by assessment of cell viability using the microplate reader (absorbance at 490 nm). Data were normalized to untreated controls and analyzed with Microsoft Excel.

For the next experiment, the system named is TMD-8. In words: Anti Proliferation Assay (MTS), TMD-8. Type of experiment: cell-based. The note with it: Homo sapiens, TMD8, TMD-8 cells, 72 hours treatment. The method, then:
as §1

In another experiment the target is Full-length inactive BTK (Homo sapiens, UniProt Q06187). In words: BTK Kinase Activity Assay. The experiment is classed as biochemical. The settings on record: AlphaScreen, 25 μM ATP, 30 minute pre-incubation. The method, then:
BTK Kinase Activity Assay
After a 30 minute pre-incubation at room temperature, the kinase reaction was initiated by the addition of 5 μl of an activation mixture diluted in assay buffer containing biotinylated PLCγ2 peptide, DOPS/DOPC, PtdIns(3,4,5)P3, and ATP for final concentrations of 100 nM biotinylated PLCγ2, 5.5 μM DOPS, 5.5 μM DOPC, 0.5 μM PtdIns(3,4,5)P3, and 25 μM ATP. The plates were incubated for 60 minutes at room temperature. The reactions were stopped in the dark by the addition of 10 μl stop/detection mixture prepared in assay buffer containing EDTA and AlphaScreen™ Streptavidin Donor and anti-pTYR100 Acceptor beads. The final concentrations were 10 mM EDTA and 500 ng/well of both AlphaScreen™ (Amplified Luminescent Proximity Homogeneous Assay) technology donor and acceptor beads. Assay plates were incubated for 60 minutes at room temperature in the dark, and the plates were read on a Perkin Elmer Envision Multilabel plate reader (excitation wavelength: […], emission wavelength: 570 nm).

By pIC50 is commonly meant −log10 of the IC50, conventionally taken in molar units.

pIC50: −log10 of the molar value.

Sequence of Full-length inactive BTK (Q06187 whole entry): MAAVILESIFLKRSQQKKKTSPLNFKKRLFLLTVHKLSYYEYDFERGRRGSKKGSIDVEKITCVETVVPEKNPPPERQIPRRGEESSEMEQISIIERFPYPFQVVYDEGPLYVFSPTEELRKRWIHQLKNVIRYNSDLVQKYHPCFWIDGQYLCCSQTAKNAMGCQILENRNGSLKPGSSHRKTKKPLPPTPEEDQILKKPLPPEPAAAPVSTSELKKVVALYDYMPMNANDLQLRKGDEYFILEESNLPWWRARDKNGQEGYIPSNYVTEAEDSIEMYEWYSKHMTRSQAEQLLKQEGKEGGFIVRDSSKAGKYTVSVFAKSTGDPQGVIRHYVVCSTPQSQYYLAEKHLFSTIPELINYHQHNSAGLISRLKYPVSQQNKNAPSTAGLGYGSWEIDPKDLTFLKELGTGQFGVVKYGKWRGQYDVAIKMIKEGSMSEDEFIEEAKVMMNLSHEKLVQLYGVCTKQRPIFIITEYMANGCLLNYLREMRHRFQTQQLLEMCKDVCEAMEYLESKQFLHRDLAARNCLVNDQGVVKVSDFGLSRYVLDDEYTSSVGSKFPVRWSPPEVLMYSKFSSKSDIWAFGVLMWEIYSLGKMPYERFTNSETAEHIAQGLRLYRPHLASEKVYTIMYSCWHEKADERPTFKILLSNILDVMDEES
T1 sequence (Q06187 whole entry C481S): as the sequence (Q06187 whole entry) above, with C481S counted along it

Turning to `O=c1c2c[nH]nc2c2cnc(NCC3COc4ccccc4O3)nc2n1-c1ccccc1` (stereo not shown) [Compound 14, 7-(((2,3-dihydrobenzo[b][1,4]dioxin-2-yl)methyl)amino)-5-phenyl-2H-pyrazolo[3′,′:4,5]pyrido[2,3-d]pyrimidin-4(5H)-one], the “BTK (C481S) (% inhibition)” value on Full-length BTKC481S is given as 92.8%. Further, the pIC50 with Rec-1 was 5.37; in the experiment with TMD-8, 5.40; against Full-length inactive BTK, 6.62.

In the case of `O=c1c2c[nH]nc2c2cnc(NCC3CNc4ccccc4O3)nc2n1-c1ccccc1F` (stereo not shown) [Compound 346, 7-[(3,4-dihydro-2H-1,4-benzoxazin-2-ylmethyl)amino]-5-(2-fluorophenyl)-2,5-dihydro-4H-pyrazolo[3′,4′:4,5]pyrido[2,3-d]pyrimidin-4-one], at Full-length BTKC481S, the “BTK (C481S) (% inhibition)” value amounted to 85.2%. The pIC50 is 4.49 in the experiment with Rec-1, 5.02 in the experiment on TMD-8 and 7.48 against Full-length inactive BTK.

For the compound `Cc1c2c(=O)[nH]nc-2c2cnc(NC[C@H]3COc4ccccc4O3)nc2n1-c1ccccc1` [Compound 359, 7-{[(2S)-2,3-dihydro-1,4-benzodioxin-2-ylmethyl]amino}-4-methyl-5-phenyl-2,5-dihydro-3H-pyrazolo[3′,′:4,5]pyrido[2,3-d]pyrimidin-3-one], on Full-length BTKC481S, the “BTK (C481S) (% inhibition)” value is 59%. Further, the pIC50 in the experiment with Rec-1 was 4.63; in the experiment on TMD-8, 4.57; against Full-length inactive BTK, 7.48.

Take `O=c1[nH]nc2c3cnc(NCC4COc5ccccc5O4)nc3n(-c3ccccc3)cc1-2` (stereo not shown) [Compound 356, 7-(((2,3-dihydrobenzo[b][1,4]dioxin-2-yl)methyl)amino)-5-phenyl-2H-pyrazolo[3′,′:4,5]pyrido[2,3-d]pyrimidin-3(5H)-one]: the “BTK (C481S) (% inhibition)” value at Full-length BTKC481S worked out at 53.7%. In addition, the pIC50 in the experiment on Rec-1 was 4.73; in the experiment on TMD-8, 4.64; against Full-length inactive BTK it was 6.48.

Turning to `CN1CC(CNc2ncc3c4n[nH]cc4c(=O)n(-c4ccccc4F)c3n2)Oc2ccccc21` (stereo not shown) [Compound 229, 5-(2-fluorophenyl)-7-(((4-methyl-3,4-dihydro-2H-benzo[b][1,4]oxazin-2-yl)methyl)amino)-2H-pyrazolo[3′,4′:4,5]pyrido[2,3-d]pyrimidin-4(5H)-one], at Full-length BTKC481S, the “BTK (C481S) (% inhibition)” value is listed as 99.2%. Further, the pIC50 with Rec-1 is 5.59; in the experiment with TMD-8, 5.85; on Full-length inactive BTK, 7.47.

Take `Cc1[nH]nc2c1c(=O)n(-c1ccccc1)c1nc(NC[C@H]3COc4ccccc4O3)ncc21` [Compound 210, 7-{[(2S)-2,3-dihydro-1,4-benzodioxin-2-ylmethyl]amino}-3-methyl-5-phenyl-2,5-dihydro-4H-pyrazolo[3′,′:4,5]pyrido[2,3-d]pyrimidin-4-one]: at Full-length BTKC481S, the “BTK (C481S) (% inhibition)” value came out at 73.3%. Also, the negative-log IC50 (pIC50) with Rec-1 is 5.17; with TMD-8, 5.15; on Full-length inactive BTK, 6.85.

Regarding `CN1C[C@H](CNc2ncc3c4n[nH]cc4c(=O)n(-c4ccccc4F)c3n2)Oc2ccccc21` [Compound 343, 5-(2-fluorophenyl)-7-({[(2S)-4-methyl-3,4-dihydro-2H-1,4-benzoxazin-2-yl]methyl}amino)-2,5-dihydro-4H-pyrazolo[3′,4′:4,5]pyrido[2,3-d]pyrimidin-4-one], at Full-length BTKC481S, the “BTK (C481S) (% inhibition)” value was 100%. The pIC50 with Rec-1 is 5.85; in the experiment with TMD-8, 6.22; at Full-length inactive BTK it was 7.85.

In the case of `CN(C[C@H]1CN(C)c2ccccc2O1)c1ncc2c3[nH]nc(N)c3c(=O)n(-c3ccccc3F)c2n1` [Compound 342, 3-amino-5-(2-fluorophenyl)-7-(methyl{[(2R)-4-methyl-3,4-dihydro-2H-1,4-benzoxazin-2-yl]methyl}amino)-1,5-dihydro-4H-pyrazolo[3′,4′:4,5]pyrido[2,3-d]pyrimidin-4-one], at Full-length BTKC481S, the “BTK (C481S) (% inhibition)” value was found to be 101%. For the same compound, the pIC50 in the experiment with Rec-1 was 5.59; in the experiment on TMD-8, 6.15; against Full-length inactive BTK it was 7.96.

On to `CN(CC1COc2ccccc2O1)c1ncc2c3[nH]nc(N)c3c(=O)n(-c3ccccc3)c2n1` (stereo not shown) [Compound 223, 3-amino-7-[(2,3-dihydro-1,4-benzodioxin-2-ylmethyl)(methyl)amino]-5-phenyl-1,5-dihydro-4H-pyrazolo[3′,4′:4,5]pyrido[2,3-d]pyrimidin-4-one], for which the “BTK (C481S) (% inhibition)” value at Full-length BTKC481S stood at 98.2%. Moreover, the pIC50 in the experiment on Rec-1 was 5.21; with TMD-8, 4.95; against Full-length inactive BTK, 7.42.

Take `CN1C[C@H](CNc2ncc3c4[nH]nc(N)c4c(=O)n(-c4ccccc4)c3n2)Oc2cc(F)ccc21` [Compound 345, 3-amino-7-({[(2S)-7-fluoro-4-methyl-3,4-dihydro-2H-1,4-benzoxazin-2-yl]methyl}amino)-5-phenyl-1,5-dihydro-4H-pyrazolo[3′,4′:4,5]pyrido[2,3-d]pyrimidin-4-one]: the “BTK (C481S) (% inhibition)” value on Full-length BTKC481S was determined as 36.1%. The pIC50 was 4.83 with Rec-1, 5.49 with TMD-8 and 8.34 at Full-length inactive BTK.

Values taken from patent US9012466B2, “Substituted tricyclic pyrazolo-pyrimidine compounds” (ArQule, Inc., priority 2013, dated 2015).
